Experiments:
[1] = system: HCV replicon cells Huh 9B; test: HCV replicon luciferase assay; format: cell-based, hepatitis C virus; settings: Huh 9B replicon cells, 72 h incubation, luciferase readout
Procedure: (§1) HCV replicon cells Huh 9B (ReBlikon), containing the firefly luciferase—ubiquitin—neomycin phosphotransferase fusion protein and EMCV-IRES driven HCV polyprotein with cell culture adaptive mutations.
(§2) Cells were cultured at 37° C. in a 5% CO2 environment and split twice a week on seeding at 2×10E6 cells/flask on day 1 and 1×10E6 3 days later. Some 0.25 mg/ml G418 was added to the culture medium (125 ul per 25 ml) but not the assay medium.
(§3) The culture medium consisted of DMEM with […] glucose and glutamax (Gibco 61965-026) supplemented with 1× non-essential amino acids, penicillin (100 IU/ml)/streptomycin (100 μg/ml), FCS (10%, 50 ml) and 1 mg/ml G418 (Invitrogen cat no 10131-027) & 10% foetal calf serum.
(§4) A flask of cells was trypsinised and a cell count carried out. Cells were diluted to 100,000 cells/ml and 100 μl of this used to seed one opaque white 96-well plate (for the replicon assay) and one flat-bottomed clear plate (for the tox assay) for every seven compounds to be tested for IC50. Wells G12 and H12 were left empty in the clear plate as the blank. Plates were then incubated at 37° C. in a 5% CO2 environment for 24 h.
(§5) On the following day compound dilutions are made up in medium at twice their desired final concentration in a clear round bottomed plate. All dilutions have a final DMSO concentration of 1%.
(§6) Once the dilution plate had been made up, controls and compounds were transferred to the assay plate (containing the cells) at 100 μl /well in duplicate plates.
(§7) Exception: in the white (replicon) plate, no compound was added to wells A1 and A2 and 100 μl of 1% DMSO was added to these instead. In the clear (Tox) plate, wells E12 & F12 only contained the DMSO control. Plates were then incubated at 37° C. with 5% CO2 for 72 h.
At the end of the incubation time, the cells in the white plate were harvested by washing with 200 μl/well of warn (37° C.) PBS and lysed with 20 μl cell culture lysis buffer (Promega). After 5 min incubation @ RT, luciferin solution was added to the luciferase assay buffer (LARB at 200 μl per 10 ml LARB. The M injector of the microplate luminometer (Lmax, Molecular Devices) was primed with […] injections. Plate were inserted into the luminometer and 100 μl luciferase assay reagent was added by the injector on the luminometer. The signal was measured using a 1 second delay followed by a 4 second measurement programme. The IC50, the concentration of the drug required for reducing the replicon level by 50% in relation to the untreated cell control value, can be calculated from the plot of the percentage reduction of the luciferase activity vs. drug concentration.

[2] = system: HCV replicon cells Huh 9B; format: cell-based; settings: Huh 9B replicon cells, 72 h incubation, methylene blue absorbance at 620 nm
Procedure: as §1, §2, §3, §4, §5, §6, §7
The clear plate was stained with 100 μl 0.5% methylene blue in 50% ethanol at RT for 1 h, followed by solvation of the absorbed methylene blue in 100 μl per well of 1% lauroylsarcosine. Absorbance of the plate was measured on a microplate spectrophotometer (Molecular Devices) and the absorbance for each concentration of compound expressed as a proportion of the relative DMSO control. The TD50, the concentration of drug required to reduce the total cell area by 50% relative to the DMSO controls can be calculated by plotting the absorbance at 620 nm vs drug concentration.

## c1nc(Nc2ccc(N3CCOCC3)cc2)c2cc(-c3ccc(OCCN4CCOCC4)cc3)ccc2n1 [Example 1, {6-[4-(2-Morpholin-4-yl-ethoxy)-phenyl]-quinazolin-4-yl}-(4-morpholin-4-yl-phenyl)-amine]
[1]; Hepatitis C virus
  IC50: < 5000 nM
[2]
  Replicon TD5O: *** (>25 uM = ***)

## c1nc(Nc2ccc(N3CCOCC3)cc2)c2cc(-c3ccc(OCCCN4CCOCC4)cc3)ccc2n1 [Example 2, (4-Morpholin-4-yl-phenyl)-{6-[4-(3-morpholin-4-yl-propoxy)-phenyl]-quinazolin-4-yl}-amine]
[1]; Hepatitis C virus
  IC50: < 1000 nM
[2]
  Replicon TD5O: ** (>10 uM = **)

## COc1ccc(-c2ccc3ncnc(Nc4ccc(N5CCOCC5)cc4)c3c2)cc1OC [Example 3, [6-(3,4-Dimethoxy-phenyl)-quinazolin-4-yl]-(4-morpholin-4-yl-phenyl)-amine]
[1]; Hepatitis C virus
  IC50: < 1000 nM
[2]
  Replicon TD5O: ** (>10 uM = **)

## CCOc1ccc(-c2ccc3ncnc(Nc4ccc(N5CCOCC5)cc4)c3c2)cc1OCC [Example 4]
[1]
  IC50: < 1000 nM
[2]
  Replicon TD5O: ** (>10 uM = **)

## Fc1cc(-c2ccc3ncnc(Nc4ccc(N5CCOCC5)cc4)c3c2)ccc1OCCN1CCOCC1 [Example 5, {6-[3-Fluoro-4-(2-morpholin-4-yl-ethoxy)-phenyl]-quinazoline-4-yl}-(4-morpholin-4-yl-phenyl)-amine]
[1]; Hepatitis C virus
  IC50: < 1000 nM
[2]
  Replicon TD5O: *** (>25 uM = ***)

Reference: patent US20080267914A1, “Chemical Compounds” (priority 2005, published 2008)
